# Reference: PMC11755785 (Langmuir, 2025)
# Like-named read-outs stand apart in the source and are kept apart here.
# Legend:
# [1] = parameters: method as in PMID 34606770; settings: Chart 1; cited from earlier work
# [2] = cited from earlier work
# [3] = Phase-solubility diagram with HP-β-CD; type: physicochemical; parameters: stability constant K1:2 with HP-β-CD: unit not given here
# [4] = Phase-solubility diagram with β-CD
# Experimental: The solutions were mechanically shaken at 298 K in a thermostatic chamber, and the supernatant was sampled and filtered after passage for appropriate periods. The concentration of the drug in the supernatant was determined using HPLC.
# The phase-solubility diagram consists of the equilibrium concentration of the guest drug as the ordinate and the total concentration of the host CD as the abscissa.[45] If a straight line and parabolic curve can be approximated on the phase-solubility diagram, then, the curves are classified as AL- and AP-types in the Higuchi and Connors catalogs, respectively.[45],[46]
# Multiple regression analysis of the measured data set to the total concentration of the host ([CD]) and its squares ([CD]^2) using eq 3 can be used to obtain the stability constants for a combination of the equimolar complex K1:1 and double-host associating complex K1:2.[45],[46] [drawing 3] 3 This is the sum of the dissociated (free) and associated (complexed) drug concentrations. Although the Benesi–Hildebrand equation with the square of the host concentration has been used for parabolic correlations, its validity remains unclear.
# This curve is classified as the AN-type on the Higuchi and Connors catalog.[45]−[48] The curve is described by eq 4′ according to the Langmuir adsorption isotherm model.[47]−[51] To process with the linear regression analysis of ordinate ([CD]/γ) referred to abscissa ([CD]), the Hanes–Woolf expression in eq 4′ may be used [drawing 4] 4 [drawing 5] 4′ where n indicates the asymptotic concentration of the drug associated with CD (saturation, maximal γ) and K is equivalent to the drug/CD complex stability constant. […] The stoichiometry of a complex of drugs with CD is difficult to determine; the prevailing opinion is that more than one guest molecule incorporates a host molecule and that hydration or ionization of the guest regulates the solubility of the complex.[46]
# Szejtili[46] stated that, in rare cases, the ascending region at lower host concentrations is followed by a plateau region, similar to that of the AN-type saturation curve. Simultaneously, it terminates at any host concentration threshold. It is named the BS-type in the Higuchi and Connors catalog,[45]−[48] and for concentrations higher than the threshold, the guest concentration decreases along a hyperbola, probably according to the solubility product KSP.[49] To analyze this type of pattern, a hypothesis that is yet to be discussed is required.[52] […] At the threshold concentration of CD, the scale of the aggregated dispersoids transcends an upper limit, and the aggregation induces subsequent sedimentation.[52] Thus, the solubility product may be considered a property of poorly soluble aggregated dispersoids containing a tolerable amount of the drug and an excess amount of CD.
# [5] = UVA1 (365 nm) photodegradation in aqueous buffer, UV–vis spectra / RP-HPLC; type: physicochemical; settings: for UVA1 photodegradation (spectral change): 50 μM, aqueous; for disruption on exposure to UV light: 4 h
# Experimental: (§1) The samples were obtained after passage for appropriate periods and measured using an UV–vis spectrophotometer in the maximum range between 200 and 700 nm (arranged on demand) from long wavelengths toward short wavelengths to avoid unnecessary irradiation of the UV region. To obtain HPLC chromatograms, aliquots of the UV-irradiated solution were obtained by pipetting at 0, 1/5, 1/2, 1, 2, 3, 4, 24, 48, 72, 96, 120, 144, and 168 h for AVB and at 0, 1, 2, 3, and 18 h for CUR. To obtain those of OXB in the absence or presence of β-CD, the invariable samples were certified at 0 and 48 h. For the samples in acetonitrile aqueous solution or methanol aqueous solution at a ratio of 7:3, the time evolution of the UVA1 irradiated solution was examined under similar conditions.
# [6] = Photostability under solar light, UV–vis spectra; type: physicochemical; settings: solar light 4 h, 50 μM
# Experimental: The photostability of the drug under solar light was evaluated using UV–vis spectral measurements. Sample solutions were exposed to solar light outdoors at a sunny location on a latitude of 35.92° N and a longitude of 139.91° E for 4 h, from 12:00 to 16:00, at an average temperature of 284.55 K.
# [7] = UVA1 (365 nm) photodegradation in isochoric acetonitrile/water solvent; type: physicochemical
# Experimental: as §1
# [8] = Flask-shaking 1-octanol/water partition, log D–pH profile fitted to Avdeef's diagram; type: physicochemical; settings: modified Britton–Robinson buffers pH 5–11.5, 298 K
# Experimental: The aqueous-phase solvents were prepared by mixing 25 mM KH2PO4 and 25 mM Na2HPO4 solutions in 25 mM Pi buffer. The pH was adjusted before fixing the prescribed concentrations of the acid components of the buffer. The JP1 and JP2 buffer solutions were 10 mM sodium citrate/HCl buffer (pH 1.2) and Pi buffer (pH 6.8), which were prepared in compliance with the description for solution media for the dissolution test in Japanese Pharmacopeia (JP)-implemented international harmonization. The modified Britton–Robinson universal pH buffer comprised 28.6 mM KH2PO4, 28.6 mM HBO2, and 28.6 mM NaCl, titrated with 1 M NaOH (here, modified means elimination of barbital to cancel its interaction with organic solutes). For the partition equilibrium examination, the aqueous saturated 1-octanol phase comprised 1-octanol, which was flooded with a modified Britton–Robinson buffer adjusted to the appropriate pH in advance.
# The hydrophobic drug dissolved in the aqueous saturated 1-octanol phase was mixed with an isochoric solution of the modified Britton–Robinson buffer (pH 5–11.5), saturated with 1-octanol. Thereafter, the samples in the screw-capped vials were machine-shaken at 298 K in a thermostatic chamber for 60 min and subsequently kept stationary for 60 min; the procedure corresponds to the conventional “flask-shaking” method.[41]−[43] After settling, the pH in the aqueous phase was confirmed using pH indicator strips (MColoHast pH 0–6.0, MQuant pH 7.5–14, and MQuant pH 0–14, Merck, Germany) to be that of the adjusted pH value. Aliquots (10 μL) from the 1-octanol and the aqueous layers were injected into the HPLC instrument. The 1-octanol/water partition coefficients, log P (equivalent to log KOW), and acid dissociation constants, pKa, were optimized using curve fitting, approximated by eq 1 [drawing 1] 1 which is Avdeef’s diagram[44] derived from the Henderson–Hasselbalch expression for the equilibrium between the protonated and deprotonated species. The curve-fitting procedures used the solver module of Microsoft Excel 2016 with the implemented GRG nonlinear option. Approximate curves corresponding to these optimized parameters were drawn, and the pKa and log P values for AVB, OXB, and CUR were obtained.
# [9] = cited from earlier work; remark: listed apart in the source
# [10] = cited from earlier work; remark: listed apart in the source
# [11] = parameters: method as in Yan et al. 95; settings: ref Yan et al. 95; cited from earlier work
# [12] = 25 mM Pi/NaOH buffer pH 6.8, 298 K, Figure 2, in M-1 (unit assumed)
# [13] = 25 mM Pi/NaOH buffer pH 6.8, 298 K, Figure 2
molecule,measurement,setting,value
"CCOCCOC(=O)C=Cc1ccc(OC)cc1 [Cinoxate, cinoxate]",water solubility,[1],high water solubility
"O=S(=O)(O)c1ccc2[nH]c(-c3ccccc3)nc2c1 [Ensulizole, ensulizole]",risk / toxicity property,[1],With photo-oxidizing properties
"CC(O)COC[C@H]1O[C@@H]2O[C@H]3[C@H](O)[C@@H](O)[C@@H](O[C@H]4[C@H](O)[C@@H](O)[C@@H](O[C@H]5[C@H](O)[C@@H](O)[C@@H](O[C@H]6[C@H](O)[C@@H](O)[C@@H](O[C@H]7[C@H](O)[C@@H](O)[C@@H](O[C@H]8[C@H](O)[C@@H](O)[C@@H](O[C@H]1[C@H](O)[C@H]2O)O[C@@H]8COCC(C)O)O[C@@H]7COCC(C)O)O[C@@H]6COCC(C)O)O[C@@H]5COCC(C)O)O[C@@H]4COCC(C)O)O[C@@H]3COCC(C)O (stereo partly drawn) [HP-β-CD, hydroxypropyl-β-cyclodextrin]",aqueous solubility,[2],more than 400 mmol/L
"CC1CC(OC(=O)c2ccccc2O)CC(C)(C)C1 (stereo not shown) [Homosalate, homosalate]",risk / toxicity property,[1],endocrine-disrupting
COc1ccc(C(=O)c2ccccc2)c(O)c1 [OXB],stability constant K1:1 with HP-β-CD,[3]; [12],366.8
same,phase-solubility diagram type (Higuchi and Connors) with HP-β-CD,[3]; pH 6.8,AL-type
same,stability constant K1:1 with β-CD,[4]; [12],2019
same,log Kow,[2]; Chart 1,3.79
same,reported pKa,[2],7.6
same,UVA1 photodegradation (spectral change),[5]; absence of β-CD,maintenance of the OXB spectrum for 2 days
same,UVA1 photodegradation (spectral change),[5]; presence of β-CD,maintenance of the OXB spectrum for 2 days
same,stability under solar light compared to UVA1 irradiation,[6]; presence or absence of β-CD,more significant than that observed under UVA1 irradiation
same,concentration change under UVA1 irradiation (290 nm absorbance),[7]; up to 50 h,marginally reduced
same,pKa,"[8]; from log D–pH curve fitting, read-out: acid dissociation constant, pKa",7.97
same,logP,"[8]; neutral form, curve fitting, read-out: 1-octanol/water partition coefficient, log P",2.99
"CCCCC(CC)COC(=O)C=Cc1ccc(OC)cc1 (stereo not shown) [Octinoxate (OCX), octinoxate]",risk / toxicity property,[1],toxic risks for the marine ecosystem
"CCCCC(CC)COC(=O)C(C#N)=C(c1ccccc1)c1ccccc1 (stereo not shown) [Octocrylene (OCR), octocrylene]",biodegradability,[1],poorly biodegradable
"CCCCC(CC)COC(=O)c1ccc(N(C)C)cc1 (stereo not shown) [Padimate-O, padimate O]",risk / toxicity property,[1],insignificant risks
curcumin,stability constant K1:2 with HP-β-CD,[3]; [13],2.302
same,stability constant K1:1 with HP-β-CD,[3]; [12],6619
same,phase-solubility diagram type (Higuchi and Connors) with HP-β-CD,[3]; pH 6.8,AP-type
same,stability constant K1:1 with HP-β-CD,[3]; pH 6.8,6619 M^–1
same,CUR saturation concentration in reported AN-type diagram,[9],≤ 0.00012 mM
same,stability constant K1:1 with β-CD,[9]; ref Chen et al. 83,198 M^–1
same,stability constant K1:1 with β-CD,[9]; ref Mashaqbef et al. 81,487.3 M^–1
same,CUR solubility in reported phase-solubility diagram,[9]; speculated by the authors from the report,≤ 16 µM
same,stability constant K1:2 with β-CD,[4]; [13],74.41
same,stability constant K1:1 with β-CD,[4]; [12],771.7
same,phase-solubility diagram type (Higuchi and Connors) with β-CD,[4]; pH 6.8,AP-type
same,stability constant K1:1 with β-CD,[4]; pH 6.8,771.7 M^–1
same,stability constant K1:1 with HP-β-CD,[10]; ref Celebioglu and Uyar 84,3073 M^–1
same,stability constant K1:1 with HP-β-CD,[10]; ref Li et al. 85,2941 M^–1
same,log P,[2],3.2
same,updated pKa (first value),[2],7.56
same,updated pKa (second value),[2],8.72
same,updated pKa (third value),[2],10.17
same,pKa (keto-enol),[2]; first of three pKa values,7.8
same,pKa (first phenolic OH),[2]; second of three pKa values,8.5
same,pKa (second phenolic OH),[2]; third of three pKa values,9.0
same,disruption on exposure to UV light,[5]; solution containing β-CD,31.90%
same,disruption on exposure to UV light,[5]; solution without β-CD,40.95%
same,change in absorption peaks under solar light,[6]; presence of β-CD,significant changes in absorption peaks
same,effect of equimolar and 4 mM β-CD on photodegradation velocity / first-order rate,"[7]; UVA1 365 nm, 25 μM",decreased
same,degradation under 425 nm light compared to 620 nm light,[11],1.7 times faster
same,"acid dissociation constant, pKa",[8]; from log D–pH curve fitting,8.81
same,"1-octanol/water partition coefficient, log P","[8]; neutral form, curve fitting",2.65
